One block for each molecule: values may come before it.
Experiments:
[1] = tested on: KM12; experiment: Antitumor activity against human KM12 cells; format: functional, cell-based
[2] = tested on: NCI-H460; experiment: Antitumor activity against human NCI-H460 cells; format: functional, cell-based
[3] = tested on: A549; experiment: Antitumor activity against human A549 cells; format: functional, cell-based
[4] = molecular target: T1, Proto-oncogene tyrosine-protein kinase Src (Homo sapiens, UniProt P12931); experiment: Inhibition of human recombinant pp60c-src expressed in baculovirus infected Sf9 insect cells using poly(Glu,Tyr) 4:1 as substrate after 15 mins
[5] = molecular target: T1, Proto-oncogene tyrosine-protein kinase Src; experiment: Inhibition of human c-SRC expressed in mouse NIH/3T3 cells assessed as reduction in cell growth; format: cell-based
[6] = Inhibition of human c-SRC expressed in mouse NIH/3T3 cells assessed as reduction in BrdU incorporation after 24 hrs by ELISA
[7] = molecular target: T2, Insulin receptor (Homo sapiens, UniProt P06213); experiment: Non-competitive inhibition of human placental insulin receptor expressed in CHO cell membrane assessed as decrease in insulin-stimulated A2 phosphorylation preincubated for 15 mins followed by substrate addition and measured after 15 mins in presence of [gamma-32P]ATP by Dixon plot analysis; format: cell-based
[8] = molecular target: T2, Insulin receptor; experiment: Inhibition of human placental insulin receptor expressed in CHO cells assessed as decrease in insulin-stimulated [3H]-2-deoxyglucose uptake preincubated for 1 hr; format: cell-based
[9] = tested on: HT-29; experiment: Antiproliferative activity against human HT-29 cells in presence of 1.5% FCS by BrdU incorporation assay; format: functional, cell-based
[10] = tested on: KM12; experiment: Antiproliferative activity against human KM12 cells by BrdU incorporation assay; format: functional
[11] = Oral bioavailability in mouse; format: ADME, organism-based; conditions: in vivo

T1 sequence (P12931 2-536 limits assumed): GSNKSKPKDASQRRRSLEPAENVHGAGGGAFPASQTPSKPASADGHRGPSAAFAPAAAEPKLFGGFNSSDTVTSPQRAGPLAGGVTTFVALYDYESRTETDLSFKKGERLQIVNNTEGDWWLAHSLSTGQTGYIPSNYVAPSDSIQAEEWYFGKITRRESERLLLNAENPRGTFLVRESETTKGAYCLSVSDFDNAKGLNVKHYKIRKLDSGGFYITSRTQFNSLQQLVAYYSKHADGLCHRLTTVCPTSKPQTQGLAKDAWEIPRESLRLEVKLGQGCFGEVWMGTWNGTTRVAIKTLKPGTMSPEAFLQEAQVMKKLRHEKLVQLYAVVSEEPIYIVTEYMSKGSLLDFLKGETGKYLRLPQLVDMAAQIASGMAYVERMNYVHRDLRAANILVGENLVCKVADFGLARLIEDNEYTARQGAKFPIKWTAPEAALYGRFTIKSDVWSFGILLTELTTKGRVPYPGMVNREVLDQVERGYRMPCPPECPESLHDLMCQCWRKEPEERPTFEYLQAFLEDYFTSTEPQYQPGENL
T2 sequence (P06213 28-758 limits assumed): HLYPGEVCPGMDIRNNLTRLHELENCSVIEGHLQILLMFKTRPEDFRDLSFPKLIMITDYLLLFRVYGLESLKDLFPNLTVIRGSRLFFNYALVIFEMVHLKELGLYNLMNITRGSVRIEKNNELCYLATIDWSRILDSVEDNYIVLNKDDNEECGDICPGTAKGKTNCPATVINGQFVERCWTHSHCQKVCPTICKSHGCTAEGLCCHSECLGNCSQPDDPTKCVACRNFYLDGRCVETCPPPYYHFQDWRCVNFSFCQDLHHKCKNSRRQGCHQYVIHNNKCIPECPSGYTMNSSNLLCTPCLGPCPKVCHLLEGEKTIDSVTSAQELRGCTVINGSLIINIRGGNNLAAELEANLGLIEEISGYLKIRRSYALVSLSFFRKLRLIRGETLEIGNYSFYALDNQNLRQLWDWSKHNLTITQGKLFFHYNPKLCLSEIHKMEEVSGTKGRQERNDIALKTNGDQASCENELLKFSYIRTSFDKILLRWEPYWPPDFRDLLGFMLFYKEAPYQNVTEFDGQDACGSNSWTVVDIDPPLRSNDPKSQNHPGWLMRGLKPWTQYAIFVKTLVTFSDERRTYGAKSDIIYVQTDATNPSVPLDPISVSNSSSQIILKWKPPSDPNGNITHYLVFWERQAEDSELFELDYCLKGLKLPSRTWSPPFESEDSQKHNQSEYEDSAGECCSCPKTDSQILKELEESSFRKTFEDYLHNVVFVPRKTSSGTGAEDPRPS
T2 sequence (P06213 763-1382 limits assumed): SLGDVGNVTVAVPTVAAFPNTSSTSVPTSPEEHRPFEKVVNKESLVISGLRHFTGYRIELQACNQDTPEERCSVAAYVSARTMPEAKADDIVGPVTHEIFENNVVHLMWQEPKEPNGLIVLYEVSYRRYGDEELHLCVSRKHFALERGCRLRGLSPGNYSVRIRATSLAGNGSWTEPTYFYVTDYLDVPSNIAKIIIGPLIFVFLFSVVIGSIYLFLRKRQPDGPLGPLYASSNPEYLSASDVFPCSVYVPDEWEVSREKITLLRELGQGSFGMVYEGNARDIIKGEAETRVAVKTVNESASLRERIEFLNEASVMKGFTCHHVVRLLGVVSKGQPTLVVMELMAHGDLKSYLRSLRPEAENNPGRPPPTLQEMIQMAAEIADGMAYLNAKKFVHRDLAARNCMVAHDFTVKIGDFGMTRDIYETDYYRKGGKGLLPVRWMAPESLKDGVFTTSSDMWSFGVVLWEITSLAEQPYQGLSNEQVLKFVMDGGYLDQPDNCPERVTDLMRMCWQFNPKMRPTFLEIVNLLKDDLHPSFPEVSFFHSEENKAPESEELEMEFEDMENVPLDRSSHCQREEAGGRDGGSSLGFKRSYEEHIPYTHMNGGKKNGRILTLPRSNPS

IC50 [1]: 4.2 µM
IC50 [2]: 59 µM
IC50 [3]: 41 µM
SMILES: O=C(NCc1cccc(O)c1)c1cc2cc(O)ccc2[nH]1

IC50 [2]: 15 µM
SMILES: O=C(NCc1cccc(F)c1)c1cc2cc(F)ccc2[nH]1

The next lines start with the molecule.

SMILES: COc1cc2c(Nc3c(Cl)ccc4c3OCO4)ncnc2cc1OCCCN1CCCCC1
IC50 [4]: < 0.004 µM
GI50 [5]: 0.087 µM
IC50 [6]: 0.11 µM

SMILES: O=P(O)(O)C(O)c1ccc2ccccc2c1 (stereo not drawn)
Ki [7]: 95 µM
IC50 [8]: 10 µM

SMILES: O=C(Cc1ccc(-c2ccccc2)cc1)NCc1cccc(F)c1
IC50 [9]: 0.877 µM
GI50 [10]: 0.41 µM

SMILES: O=C(Cc1ccc(-c2ccc(OCCN3CCOCC3)cc2)cn1)NCc1cccc(F)c1
IC50 [9]: 0.111 µM
bioavailability [11]: 64%
